Like-named read-outs stand apart in the source and are kept apart here.
Legend:
SK-BR-3 = test: Inhibition of cells growth by colorimetric (SRB) assay, SK-BR-3; settings: for GI50 / CC50: Homo sapiens, SK-BR-3, 48 h; for GI50: read-out: SK-BR-3 GI50, SRB assay, 48 hours exposure; for CC50: read-out: SK-BR-3 LC50, SRB assay, 48 hours exposure; for SK-BR-3 TGI: SRB assay, 48 hours exposure
Procedure, shortened: (§1)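 Read-out is sulforhodamine B protein stain (OD 490 nm) after cold TCA fixation, following 48 h continuous exposure to samples spanning 10 to 10^−8 μg/ml.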

LoVo-Dox = test: Inhibition of cells growth by colorimetric (SRB) assay, LoVo-Dox; settings: for GI50 / CC50: Homo sapiens, 48 h; for GI50: read-out: LOVO-DOX GI50, SRB assay, 48 hours exposure; for CC50: read-out: LOVO-DOX LC50, SRB assay, 48 hours exposure; for LOVO-DOX TGI: SRB assay, 48 hours exposure
Procedure, shortened: as §1

HeLa = test: Inhibition of cells growth by colorimetric (SRB) assay, HeLa; settings: for GI50: Homo sapiens, HeLa, 48 h, read-out: HELA GI50, SRB assay, 48 hours exposure; for HELA TGI: SRB assay, 48 hours exposure
Text: (§2) The finality of these assays is to interrupt the growth of a “in vitro” tumor cell culture by means a continued exhibition of the cells to the sample to be testing.
(§3) This form of the assay employs 96 well cell culture microplates of 9 mm diameter (Faircloth, 1988; Mosmann, 1983). Most of the cell lines are obtained from American Type Culture Collection (ATCC) derived from different human cancer types.
(§4) Cells are maintained in RPMI 1640 10% FBS, supplemented with 0.1 g/l penicillin and 0.1 g/l streptomycin sulphate and then incubated at 37° C., 5% CO2 and 98% humidity. For the experiments, cells were harvested from subconfluent cultures using trypsin and resuspended in fresh medium before plating.
(§5) Cells are seeded in 96 well microtiter plates, at 5×10^3 cells per well in aliquots of 195 μl medium, and they are allowed to attach to the plate surface by growing in drug free medium for 18 hours. Afterward, samples are added in aliquots of 5 μl in a ranging from 10 to 10^−8 μg/ml, dissolved in DMSO/EtOH/PBS (0.5:0.5:99). After 48 hours exposure, the antitumor effect are measured by the SRB methodology: cells are fixed by adding 50 μl of cold 50% (wt/vol) trichloroacetic acid (TCA) and incubating for 60 minutes at 4° C. Plates are washed with deionized water and dried. One hundred μl of SRB solution (0.4% wt/vol in 1% acetic acid) is added to each microtiter well and incubated for 10 minutes at room temperature. Unbound SRB is removed by washing with 1% acetic acid. Plates are air dried and bound stain is solubilized with Tris buffer. Optical densities are read on a automated spectrophotometric plate reader at a single wavelength of 490 nm.
(§6) The values for mean +/−SD of data from triplicate wells are calculated. Some parameters for cellular responses can be calculated: GI=growth inhibition, TGI=total growth inhibition (cytostatic effect) and LC=cell killing (cytotoxic effect).

SK-MEL-28 = test: Inhibition of cells growth by colorimetric (SRB) assay, SK-MEL-28; settings: for GI50 / CC50: Homo sapiens, SK-MEL-28, 48 h; for GI50: read-out: MEL-28 GI50, SRB assay, 48 hours exposure; for CC50: read-out: MEL-28 LC50, SRB assay, 48 hours exposure; for MEL-28 TGI: SRB assay, 48 hours exposure
Procedure, shortened: as §1

LoVo = test: Inhibition of cells growth by colorimetric (SRB) assay, LoVo; settings: for GI50 / CC50: Homo sapiens, LoVo, 48 h; for GI50: read-out: LOVO GI50, SRB assay, 48 hours exposure; for CC50: read-out: LOVO LC50, SRB assay, 48 hours exposure; for LOVO TGI: SRB assay, 48 hours exposure
Procedure, shortened: as §1

LNCaP = test: Inhibition of cells growth by colorimetric (SRB) assay, LNCaP; settings: for GI50 / CC50: Homo sapiens, LNCaP, 48 h; for GI50: read-out: LN-caP GI50, SRB assay, 48 hours exposure; for CC50: read-out: LN-caP LC50, SRB assay, 48 hours exposure; for LN-caP TGI: SRB assay, 48 hours exposure
Procedure, shortened: as §1

HeLa-APL = test: Inhibition of cells growth by colorimetric (SRB) assay, HeLa-APL; settings: for GI50 / CC50: Homo sapiens, 48 h; for GI50: read-out: HELA-APL GI50, SRB assay, 48 hours exposure; for CC50: read-out: HELA-APL LC50, SRB assay, 48 hours exposure; for HELA-APL TGI: SRB assay, 48 hours exposure
Text: as §2, §3, §4, §5, §6

IGROV-1 = test: Inhibition of cells growth by colorimetric (SRB) assay, IGROV-1; settings: for GI50 / CC50: Homo sapiens, IGROV-1, 48 h; for GI50: read-out: IGROV GI50, SRB assay, 48 hours exposure; for CC50: read-out: IGROV LC50, SRB assay, 48 hours exposure; for IGROV TGI: SRB assay, 48 hours exposure
Procedure, shortened: as §1

HT-29 = test: Inhibition of cells growth by colorimetric (SRB) assay, HT-29; settings: for GI50 / CC50: Homo sapiens, HT-29, 48 h
Procedure, shortened: as §1

DU-145 = test: Inhibition of cells growth by colorimetric (SRB) assay, DU-145; settings: for GI50 / CC50: Homo sapiens, DU-145, 48 h; for GI50: read-out: DU-145 GI50, SRB assay, 48 hours exposure; for CC50: read-out: DU-145 LC50, SRB assay, 48 hours exposure; for DU-145 TGI: SRB assay, 48 hours exposure
Procedure, shortened: as §1

K-562 = test: Inhibition of cells growth by colorimetric (SRB) assay, K-562; settings: for GI50 / CC50: Homo sapiens, K562, 48 h; for GI50: read-out: K-562 GI50, SRB assay, 48 hours exposure; for CC50: read-out: K-562 LC50, SRB assay, 48 hours exposure; for K-562 TGI: SRB assay, 48 hours exposure
Procedure, shortened: as §1

IGROV-ET = test: Inhibition of cells growth by colorimetric (SRB) assay, IGROV-ET; settings: for GI50 / CC50: Homo sapiens, 48 h; for GI50: read-out: IGROV-ET GI50, SRB assay, 48 hours exposure; for CC50: read-out: IGROV-ET LC50, SRB assay, 48 hours exposure; for IGROV-ET TGI: SRB assay, 48 hours exposure
Procedure, shortened: as §1

A-549 = test: Inhibition of cells growth by colorimetric (SRB) assay, A-549; settings: for GI50 / CC50: Homo sapiens, A549, 48 h
Procedure, shortened: as §1

PANC-1 = test: Inhibition of cells growth by colorimetric (SRB) assay, PANC-1; settings: for GI50 / CC50: Homo sapiens, PANC-1, 48 h; for GI50: read-out: PANC-1 GI50, SRB assay, 48 hours exposure; for CC50: read-out: PANC-1 LC50, SRB assay, 48 hours exposure; for PANC-1 TGI: SRB assay, 48 hours exposure
Procedure, shortened: as §1

[1] = read-out: HT-29 GI50, SRB assay, 48 hours exposure
[2] = read-out: HT-29 LC50, SRB assay, 48 hours exposure
[3] = read-out: A-549 GI50, SRB assay, 48 hours exposure
[4] = read-out: A-549 LC50, SRB assay, 48 hours exposure

SMILES: CS(=O)(=O)c1nccc(-c2c3cccnc3n3c(N)nccc23)n1 [Compound 73]
- GI50 (SK-BR-3): 2.08 µM
- CC50 (SK-BR-3): 29.4 µM
- SK-BR-3 TGI (SK-BR-3): 9.37E−06
- GI50 (LoVo-Dox): 10.1 µM
- CC50 (LoVo-Dox): 29.4 µM
- LOVO-DOX TGI (LoVo-Dox): 2.94E−05
- GI50 (HeLa): 0.00896 µM
- HELA TGI (HeLa): 3.58E−08
- GI50 (SK-MEL-28): 5.46 µM
- CC50 (SK-MEL-28): 29.4 µM
- MEL-28 TGI (SK-MEL-28): 2.94E−05
- GI50 (LoVo): 14.4 µM
- CC50 (LoVo): 29.4 µM
- LOVO TGI (LoVo): 2.94E−05
- GI50 (LNCaP): 4.76 µM
- CC50 (LNCaP): 29.4 µM
- LN-caP TGI (LNCaP): 1.51E−05
- GI50 (HeLa-APL): 0.013 µM
- CC50 (HeLa-APL): 7.23 µM
- HELA-APL TGI (HeLa-APL): 7.23E−08
- GI50 (IGROV-1): 5.41 µM
- CC50 (IGROV-1): 29.4 µM
- IGROV TGI (IGROV-1): 2.94E−05
- GI50 (HT-29; read-out: GI50 HT-29, SRB assay, 48 hours exposure): ≥ 29.4 µM
- GI50 (HT-29; [1]): 14.6 µM
- CC50 (HT-29; [2]): 29.4 µM
- CC50 (HT-29; read-out: LC50 HT-29, SRB assay, 48 hours exposure): ≥ 147 µM
- HT-29 TGI (HT-29; SRB assay, 48 hours exposure): 2.94E−05
- TGI HT-29 (HT-29; SRB assay, 48 hours exposure): 1.47E−04
- GI50 (DU-145): 29.4 µM
- CC50 (DU-145): 29.4 µM
- DU-145 TGI (DU-145): 2.94E−05
- GI50 (K-562): 13.7 µM
- CC50 (K-562): 29.4 µM
- K-562 TGI (K-562): 2.94E−05
- GI50 (IGROV-ET): 2.05 µM
- CC50 (IGROV-ET): 29.4 µM
- IGROV-ET TGI (IGROV-ET): 2.94E−05
- GI50 (A-549; [3]): 11.3 µM
- CC50 (A-549; [4]): 29.4 µM
- GI50 (A-549; read-out: GI50 A-549, SRB assay, 48 hours exposure): 4.41 µM
- CC50 (A-549; read-out: LC50 A-549, SRB assay, 48 hours exposure): ≥ 147 µM
- A-549 TGI (A-549; SRB assay, 48 hours exposure): 2.94E−05
- TGI A-549 (A-549; SRB assay, 48 hours exposure): 1.47E−04
- GI50 (PANC-1): 12.3 µM
- CC50 (PANC-1): 29.4 µM
- PANC-1 TGI (PANC-1): 2.94E−05

SMILES: Cl.Nc1nccc(-c2c3c(Cl)ccnc3n3c(N)nccc23)n1 [Compound 83]
- GI50 (SK-BR-3): 0.575 µM
- CC50 (SK-BR-3): 1.92 µM
- SK-BR-3 TGI (SK-BR-3): 1.05E−06
- GI50 (LoVo-Dox): 0.803 µM
- CC50 (LoVo-Dox): 17.8 µM
- LOVO-DOX TGI (LoVo-Dox): 1.72E−06
- GI50 (HeLa): 0.0478 µM
- HELA TGI (HeLa): 1.38E−07
- GI50 (SK-MEL-28): 1.32 µM
- CC50 (SK-MEL-28): 11.8 µM
- MEL-28 TGI (SK-MEL-28): 3.64E−06
- GI50 (LoVo): 0.471 µM
- CC50 (LoVo): 2.09 µM
- LOVO TGI (LoVo): 9.90E−07
- GI50 (LNCaP): 0.424 µM
- CC50 (LNCaP): 1.52 µM
- LN-caP TGI (LNCaP): 8.03E−07
- GI50 (HeLa-APL): 0.0478 µM
- CC50 (HeLa-APL): 0.257 µM
- HELA-APL TGI (HeLa-APL): 1.11E−07
- GI50 (IGROV-1): 0.998 µM
- CC50 (IGROV-1): 26 µM
- IGROV TGI (IGROV-1): 3.17E−06
- GI50 (HT-29; [1]): 1.37 µM
- CC50 (HT-29; [2]): 26 µM
- HT-29 TGI (HT-29; SRB assay, 48 hours exposure): 3.90E−06
- GI50 (DU-145): 0.621 µM
- CC50 (DU-145): 8.32 µM
- DU-145 TGI (DU-145): 1.49E−06
- GI50 (K-562): 2.6 µM
- CC50 (K-562): 26 µM
- K-562 TGI (K-562): 1.73E−05
- GI50 (IGROV-ET): 1.08 µM
- CC50 (IGROV-ET): 26 µM
- IGROV-ET TGI (IGROV-ET): 2.29E−06
- GI50 (A-549; [3]): 0.757 µM
- CC50 (A-549; [4]): 8.66 µM
- A-549 TGI (A-549; SRB assay, 48 hours exposure): 1.57E−06
- GI50 (PANC-1): 1.95 µM
- CC50 (PANC-1): 26 µM
- PANC-1 TGI (PANC-1): 1.07E−05

Source: patent US7772241B2, “Variolin derivatives and their use as antitumor agents” (Pharma Mar S.A., priority 2001, dated 2010)
